In patent US5661130A, “Absorption enhancers for drug administration” (The UAB Research Foundation, priority 1993, dated 1997):

Key:
rats = assay: Hyperglycemic effect of glucagon eye drops with surfactant; type: in vivo, rat; conditions: for blood D-glucose values after glucagon eye drops (in words): surfactant plus glucagon, rats previously treated with eye drops of same surfactant plus insulin; for Blood Glucose Concentration: glucagon eye drops with 0.5% surfactant agent added after 120 min (after insulin eye drops)
Description: Glucagon absorption from the eye was measured in rats given eye drops containing various surfactants plus glucagon (30 μg) (Eli Lilly, Indianapolis, Ind.) by monitoring an elevation in blood D-glucose levels. […] Once again, paired animals that received eye drops containing the surfactant agents only, or glucagon only, could be compared to animals receiving eye drops with surfactant agents and glucagon. […] Additionally, the use of glucagon eyedrops to treat a hypoglycemic crisis is now possible provided that an appropriate surfactant agent is included in the eye drop formulation.

[1] = system: normal rats with blood glucose elevated by xylazine/ketamine anesthesia; assay: Hypoglycemic effect of insulin eye drops with absorption enhancer in anesthetized rats; type: in vivo, rat
Description: This mimics the hyperglycemic state seen in diabetic animals and humans. The elevated levels of D-glucose that occur in response to anesthesia provide an optimal system in which to measure any systemic hypoglycemic action of insulin-containing eye drops.
Adult male Sprague-Dawley rats (250-350g) were fed ad libitum, and experiments were conducted between 10:00 a.m. and 3:00 p.m. Rats were anesthetized with a mixture of xylazine (7.5 mg/kg) and ketamine (50 mg/kg) given intraperitoneally (IP) and allowed to stabilize for 50-90 min before the administration of eye drops. […] Blood D-glucose values were measured by collecting a drop of blood from the tail vein at 5-10 min intervals throughout the experiment and applying the blood to glucometer strips (Chemstrip bG) according to directions provided with the instrument (Accu-Chek II, Boehringer Mannheim Diagnostics; Indianapolis, Ind.).
(§1) Eye drops were instilled at time 0 using a plastic disposable pipette tip with the eyes held open, and the rat was kept in a horizontal position on a warming pad (37° C.) throughout the protocol. […] Octyl β-D-maltoside, decyl-β-D-maltoside, dodecyl-β-D-maltoside, tridecyl-β-D-maltoside and tetradecyl-β-D-maltoside were obtained from Anatrace, Inc. (Maumee, Ohio).

rectal mucosa of rats = conditions: Murakami et al.; cited from earlier work
[2] = system: intact mouse fibrosarcoma cells; conditions: LeGrue et al.; cited from earlier work
[3] = system: monocytes or endothelial cells; conditions: DiCorleto et al.; cited from earlier work
[4] = system: normal rats with blood glucose elevated by xylazine/ketamine anesthesia; assay: Hypoglycemic effect of insulin nose drop with absorption enhancer; type: in vivo, rat; conditions: nose drop 0.2% insulin with 0.5% tetradecylmaltoside, after eye drops
Description: Adult male Sprague-Dawley rats (250-350g) were fed ad libitum, and experiments were conducted between 10:00 a.m. and 3:00 p.m. Rats were anesthetized with a mixture of xylazine (7.5 mg/kg) and ketamine (50 mg/kg) given intraperitoneally (IP) and allowed to stabilize for 50-90 min before the administration of eye drops. Anesthesia of a normal rat with xylazine/ketamine produces an elevation in blood glucose values which provides an optimal state to determine the systemic hypoglycemic action of insulin-containing eye drops. Blood D-glucose values were measured by collecting a drop of blood from the tail vein at 5-10 min intervals throughout the experiment and applying the blood to glucometer strips (Chemstrip bG) according to directions provided with the instrument (Accu-Chek II, Boehringer Mannheim Diagnostics; Indianapolis, Ind.). Blood D-glucose values ranged from 200 to 400 mg/dl in anesthetized nondiabetic rats.
as §1, with “Ohio). […]” for “Ohio).”

[5] = 0.5% enhancer with 0.2% regular porcine insulin
[6] = enhancer concentration not singled out (0.125-0.5%), with 0.2% regular porcine insulin
[7] = 0.25% enhancer with 0.2% regular porcine insulin

CCCCCCCCCCO[C@@H]1O[C@H](CO)[C@@H](O[C@H]2O[C@H](CO)[C@@H](O)[C@H](O)[C@H]2O)[C@H](O)[C@H]1O [Decyl Maltoside, decyl-β-D-maltoside]
blood D-glucose values after glucagon eye drops (in words) (rats): significantly increased | Effect as absorption enhancer on blood glucose, insulin eye drops (in words) [1, 5]: prompt and sustained fall in blood glucose levels | Effect as absorption enhancer on blood glucose, insulin eye drops (in words) [1, 6]: less

CCCCCCCCCCCCO[C@@H]1O[C@H](CO)[C@@H](O[C@H]2O[C@H](CO)[C@@H](O)[C@H](O)[C@H]2O)[C@H](O)[C@H]1O [Dodecyl Maltoside, dodecyl-β-D-maltoside]
Effect as absorption enhancer on blood glucose, insulin eye drops (in words) ([1]; 0.125% enhancer with 0.2% regular porcine insulin): ineffective | Effect as absorption enhancer on blood glucose, insulin eye drops (in words) [1, 7]: smaller and more transient effect | Effect as absorption enhancer on blood glucose, insulin eye drops (in words) ([1]; 0.375% enhancer with 0.2% regular porcine insulin): equally effective | Effect as absorption enhancer on blood glucose, insulin eye drops (in words) ([1]; 0.5% enhancer with 0.2% regular porcine insulin, listed as dodecyl-β-D-maltoside): prompt and sustained fall in blood glucose levels | Effect as absorption enhancer on blood glucose, insulin eye drops (in words) ([1]; 0.5% enhancer with 0.2% regular porcine insulin, listed as dodecylmaltoside): equally effective | histological change to the rectal tissue (rectal mucosa of rats): without producing any apparent histological change | promoting absorption of dextrans and carboxyfluoroscein across the rectal mucosa (rectal mucosa of rats): effective

CCCCCCCCO[C@@H]1O[C@H](CO)[C@@H](O)[C@H](O)[C@H]1O [Octylglucoside, octyl β-D-glucoside]
cytolysis of intact mouse fibrosarcoma cells [2]: non-cytolytic | viability or morphology of monocytes or endothelial cells [3]: no effect

CCCCCCCCCCCCCCO[C@@H]1O[C@H](CO)[C@@H](O[C@H]2O[C@H](CO)[C@@H](O)[C@H](O)[C@H]2O)[C@H](O)[C@H]1O [Tetradecyl Maltoside, tetradecyl-β-D-maltoside]
Effect as absorption enhancer on blood glucose, insulin eye drops (in words) ([1]; 0.125% enhancer with 0.2% regular porcine insulin, listed as tetradecyl maltoside): effective | Effect as absorption enhancer on blood glucose, insulin eye drops (in words) ([1]; 0.125% enhancer with 0.2% regular porcine insulin, listed as tetradecylmaltoside): prompt and prominent drop in blood glucose levels | Effect as absorption enhancer on blood glucose, insulin eye drops (in words) [1, 5]: effective | blood glucose levels after nose drop (in words) [4]: further decreased

CCCCCCCCCCCCCOC1OC(CO)C(OC2OC(CO)C(O)C(O)C2O)C(O)C1O [Tridecyl Maltoside, tridecyl-β-D-maltoside]
Blood Glucose Concentration (rats; time 130 min): 82 mg/dL | Blood Glucose Concentration (rats; time 140 min): 121 mg/dL | Blood Glucose Concentration (rats; time 150 min): 148 mg/dL | Blood Glucose Concentration (rats; time 160 min): 173 mg/dL | Blood Glucose Concentration (rats; time 170 min): 162 mg/dL | Blood Glucose Concentration (rats; time 180 min): 162 mg/dL | Blood Glucose Concentration (rats; time 190 min): 156 mg/dL | blood D-glucose values after glucagon eye drops (in words) (rats): significantly increased | Effect as absorption enhancer on blood glucose, insulin eye drops (in words) [1, 7]: sustained for the two hour time course of the experiment | Effect as absorption enhancer on blood glucose, insulin eye drops (in words) [1, 5]: effective | Blood Glucose Concentration ([1]; 0.5% surfactant agent, time -10 min, before insulin eye drops): 307 mg/dL | Blood Glucose Concentration ([1]; 0.5% surfactant agent, time -20 min, before insulin eye drops): 255 mg/dL | Effect as absorption enhancer on blood glucose, insulin eye drops (in words) [1, 6]: dose-dependent effect | Blood Glucose Concentration ([1]; insulin eye drops with 0.5% surfactant agent, time 0 min): 323 mg/dL | Blood Glucose Concentration ([1]; insulin eye drops with 0.5% surfactant agent, time 10 min): 309 mg/dL | Blood Glucose Concentration ([1]; insulin eye drops with 0.5% surfactant agent, time 20 min): 217 mg/dL | Blood Glucose Concentration ([1]; insulin eye drops with 0.5% surfactant agent, time 30 min): 131 mg/dL | Blood Glucose Concentration ([1]; insulin eye drops with 0.5% surfactant agent, time 40 min): 100 mg/dL | Blood Glucose Concentration ([1]; insulin eye drops with 0.5% surfactant agent, time 50 min): 87 mg/dL | Blood Glucose Concentration ([1]; insulin eye drops with 0.5% surfactant agent, time 60 min): 107 mg/dL | Blood Glucose Concentration ([1]; insulin eye drops with 0.5% surfactant agent, time 70 min): 115 mg/dL | Blood Glucose Concentration ([1]; insulin eye drops with 0.5% surfactant agent, time 80 min): 79 mg/dL | Blood Glucose Concentration ([1]; insulin eye drops with 0.5% surfactant agent, time 90 min): 85 mg/dL | Blood Glucose Concentration ([1]; insulin eye drops with 0.5% surfactant agent, time 100 min): 76 mg/dL | Blood Glucose Concentration ([1]; insulin eye drops with 0.5% surfactant agent, time 110 min): 74 mg/dL | Blood Glucose Concentration ([1]; insulin eye drops with 0.5% surfactant agent, time 120 min): 75 mg/dL

CCCCCCCOC1O[C@H](CO)[C@@H](O)[C@H](O)[C@H]1O (stereo partly drawn) [heptylglucoside, heptylglucopyranoside]
Effect as absorption enhancer on blood glucose, insulin eye drops (in words) [1, 5]: ineffective

CCCCCCOC1O[C@H](CO)[C@@H](O)[C@H](O)[C@H]1O (stereo partly drawn) [hexylglucoside, Hexylglucopyranoside]
Effect as absorption enhancer on blood glucose, insulin eye drops (in words) [1, 5]: ineffective

CCCCCCCCCOC1O[C@H](CO)[C@@H](O)[C@H](O)[C@H]1O (stereo partly drawn) [nonylglucoside, nonylglucopyranoside]
Effect as absorption enhancer on blood glucose, insulin eye drops (in words) [1, 5]: effectively stimulated insulin absorption | blood glucose levels ([1]; insulin eye drops with 0.5% nonylglucoside, initial value (from)): 297 mg/dL | blood glucose levels ([1]; insulin eye drops with 0.5% nonylglucoside, reduced value (to)): 150 mg/dL

CCCCCCCCO[C@@H]1O[C@H](CO)[C@@H](O[C@H]2O[C@H](CO)[C@@H](O)[C@H](O)[C@H]2O)[C@H](O)[C@H]1O [octylmaltoside, Octyl β-D-maltoside]
Effect as absorption enhancer on blood glucose, insulin eye drops (in words) [1, 6]: no

decylsucrose
Effect as absorption enhancer on blood glucose, insulin eye drops (in words) [1, 5]: effective in reducing blood glucose levels | blood glucose levels ([1]; insulin eye drops with 0.5% decylsucrose, time 0 min): 313 mg/dL | blood glucose levels ([1]; insulin eye drops with 0.5% decylsucrose, time 120 min): 164 mg/dL

dodecylsucrose [Dodecyl Sucrose]
blood D-glucose values after glucagon eye drops (in words) (rats): significantly increased | blood glucose levels ([1]; insulin eye drops with 0.125% dodecylsucrose, time 0 min): 335 mg/dL | blood glucose levels ([1]; insulin eye drops with 0.125% dodecylsucrose, time 120 min): 150 mg/dL
